ChEMBL document CHEMBL4145694 (J Med Chem, 2018)
The source made the active and inactive calls. No cut-off for these calls is given here.

Experiments:
[1] = Ratio of AUClast in brain to plasma of Sprague-Dawley CD rat at 5 mg/kg, sc administered as single dose measured over 1 to 168 hrs post dose by LC/MS-MS method; type: ADME, organism-based; details: brain
[2] = molecular target: Delta-type opioid receptor (Homo sapiens) (UniProt P41143); experiment: Agonist activity at human delta-opioid receptor expressed in CHO cell membranes assessed as stimulation of [35S]GTPgammaS binding at 10 uM incubated for 60 mins by scintillation counting method; type: functional
Chain of Delta-type opioid receptor (Homo sapiens) (P41143 whole entry): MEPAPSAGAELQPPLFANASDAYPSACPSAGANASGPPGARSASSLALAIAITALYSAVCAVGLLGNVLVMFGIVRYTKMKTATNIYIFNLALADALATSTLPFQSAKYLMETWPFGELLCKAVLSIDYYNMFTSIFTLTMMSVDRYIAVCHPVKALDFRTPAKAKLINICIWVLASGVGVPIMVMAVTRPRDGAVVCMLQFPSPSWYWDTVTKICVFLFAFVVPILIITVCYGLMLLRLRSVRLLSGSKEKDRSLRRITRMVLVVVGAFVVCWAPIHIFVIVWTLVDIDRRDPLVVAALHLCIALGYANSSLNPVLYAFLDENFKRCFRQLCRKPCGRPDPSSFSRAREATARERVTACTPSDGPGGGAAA

[3] = Total AUC in plasma of Sprague-Dawley CD rat at 5 mg/kg, sc administered as single dose measured over 1 to 168 hrs post dose by LC/MS-MS method; type: ADME, organism-based; set-up: dose 5 mg/kg, route subcutaneous, time AUCmax
[4] = molecular target: Kappa-type opioid receptor (Homo sapiens) (UniProt P41145); experiment: Agonist activity at human kappa-opioid receptor expressed in CHO cell membranes assessed as stimulation of [35S]GTPgammaS binding at 10 uM incubated for 60 mins by scintillation counting method; type: functional
Chain of Kappa-type opioid receptor (Homo sapiens) (P41145 whole entry): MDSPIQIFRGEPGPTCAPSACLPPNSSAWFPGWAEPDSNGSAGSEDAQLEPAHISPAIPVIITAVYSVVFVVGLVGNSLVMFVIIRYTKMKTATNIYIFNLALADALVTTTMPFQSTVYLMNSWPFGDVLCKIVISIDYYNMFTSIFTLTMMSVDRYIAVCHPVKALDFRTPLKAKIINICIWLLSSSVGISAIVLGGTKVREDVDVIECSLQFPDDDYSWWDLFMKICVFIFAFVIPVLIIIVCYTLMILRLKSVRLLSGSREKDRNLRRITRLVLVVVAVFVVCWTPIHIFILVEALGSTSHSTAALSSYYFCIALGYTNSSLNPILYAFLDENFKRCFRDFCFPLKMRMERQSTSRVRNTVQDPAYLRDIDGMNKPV

[5] = Drug level in brain of Sprague-Dawley CD rat at 5 mg/kg, sc administered as single dose measured after 168 hrs post dose by LC/MS-MS method; type: ADME, organism-based; details: in vivo
[6] = Half life in brain of Sprague-Dawley CD rat at 5 mg/kg, sc administered as single dose measured over 1 to 168 hrs post dose by LC/MS-MS method; type: ADME, organism-based
[7] = Drug level in plasma of Sprague-Dawley CD rat at 5 mg/kg, sc administered as single dose measured after 168 hrs post dose by LC/MS-MS method; type: ADME, organism-based; details: in vivo
[8] = molecular target: Delta-type opioid receptor (Homo sapiens) (UniProt P41143); experiment: Antagonist activity at human delta-opioid receptor expressed in CHO cell membranes assessed as inhibition of DPDPE-induced [35S]GTPgammaS binding incubated for 60 mins by scintillation counting method; type: functional
[9] = molecular target: Mu-type opioid receptor (Homo sapiens) (UniProt P35372); experiment: Agonist activity at human mu-opioid receptor expressed in CHO cell membranes assessed as stimulation of [35S]GTPgammaS binding at 10 uM incubated for 60 mins by scintillation counting method; type: functional
Chain of Mu-type opioid receptor (Homo sapiens) (P35372 whole entry): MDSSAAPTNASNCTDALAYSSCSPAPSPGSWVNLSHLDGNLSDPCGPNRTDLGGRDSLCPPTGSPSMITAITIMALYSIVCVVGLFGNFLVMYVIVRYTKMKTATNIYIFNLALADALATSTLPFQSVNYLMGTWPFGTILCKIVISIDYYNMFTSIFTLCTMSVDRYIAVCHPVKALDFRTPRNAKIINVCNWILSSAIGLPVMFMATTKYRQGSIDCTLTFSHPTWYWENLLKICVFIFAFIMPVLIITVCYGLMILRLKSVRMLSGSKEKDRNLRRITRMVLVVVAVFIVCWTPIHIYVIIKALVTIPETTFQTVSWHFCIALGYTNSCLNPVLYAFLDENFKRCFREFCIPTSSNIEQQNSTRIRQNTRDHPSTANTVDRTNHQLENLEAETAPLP

[10] = Total AUC in brain of Sprague-Dawley CD rat at 5 mg/kg, sc administered as single dose measured over 1 to 168 hrs post dose by LC/MS-MS method; type: ADME, organism-based; set-up: dose 5 mg/kg, time AUCmax, route subcutaneous; details: in vivo
in vivo [11] = details: Sprague-Dawley CD, rat, plasma, sc, 5 mg/kg
[12] = AUClast in brain of Sprague-Dawley CD rat at 5 mg/kg, sc administered as single dose measured over 1 to 168 hrs post dose by LC/MS-MS method; type: ADME, organism-based; details: in vivo
[13] = Clearance in plasma of Sprague-Dawley CD rat at 5 mg/kg, sc administered as single dose measured over 1 to 168 hrs post dose by LC/MS-MS method; type: ADME, organism-based
in vivo [14] = details: Sprague-Dawley CD, rat, brain, sc, 5 mg/kg
[15] = AUClast in plasma of Sprague-Dawley CD rat at 5 mg/kg, sc administered as single dose measured over 1 to 168 hrs post dose by LC/MS-MS method; type: ADME, organism-based; set-up: dose 5 mg/kg, route subcutaneous, time 0 - last
[16] = Half life in plasma of Sprague-Dawley CD rat at 5 mg/kg, sc administered as single dose measured over 1 to 168 hrs post dose by LC/MS-MS method; type: ADME, organism-based

## CC1CCN(C[C@@H](NC(=O)[C@H]2Cc3ccc(O)cc3CN2)C(C)C)CC1
[1]
  BPR: 10.07
[2]
  Activity: inactive
[3]
  AUC: 1900 ng·h/mL
[4]
  Activity: inactive
[5]
  Drug uptake: Active
[6]
  half-life: 57.2 h
[7]
  Drug uptake: Active
[8]
  Ke: > 3000 nM
[9]
  Activity: inactive
[10]
  AUC: 21400 ng·h/g
In vivo [11]
  Tmax: 1 h
[12]
  AUClast: 18765 ng·h/g
[13]
  CL/F: 43.8 mL/min/kg
In vivo [14]
  Tmax: 4 h
[15]
  AUC(0-t): 1860 ng·h/mL
[16]
  half-life: 30.7 h
